# Tests used:
# [1] = Oral bioavailability in Sprague-Dawley rat at 3 mg/kg; format: ADME, organism-based; conditions: in vivo
# [2] = Plasma clearance in Sprague-Dawley rat at 1 mg/kg, iv or 3 mg/kg, po; format: ADME, organism-based
# hERG (KCNH2) = hERG (KCNH2) (Homo sapiens, UniProt Q12809); assay: (§1) Displacement of [35S]MK-0499 from human ERG expressed in HEK293 cells at 10 uM […]; format: cell-based; conditions: HEK293 cells expressing human ERG, probe [35S]MK-0499
# [3] = biological target: T1, Sodium channel protein type 9 subunit alpha (Homo sapiens, UniProt Q15858); assay: Inhibition of human Nav1.7 channel expressed in HEK293 cells by FRET assay; format: cell-based
# Target sequence in this assay (Q15858 whole entry): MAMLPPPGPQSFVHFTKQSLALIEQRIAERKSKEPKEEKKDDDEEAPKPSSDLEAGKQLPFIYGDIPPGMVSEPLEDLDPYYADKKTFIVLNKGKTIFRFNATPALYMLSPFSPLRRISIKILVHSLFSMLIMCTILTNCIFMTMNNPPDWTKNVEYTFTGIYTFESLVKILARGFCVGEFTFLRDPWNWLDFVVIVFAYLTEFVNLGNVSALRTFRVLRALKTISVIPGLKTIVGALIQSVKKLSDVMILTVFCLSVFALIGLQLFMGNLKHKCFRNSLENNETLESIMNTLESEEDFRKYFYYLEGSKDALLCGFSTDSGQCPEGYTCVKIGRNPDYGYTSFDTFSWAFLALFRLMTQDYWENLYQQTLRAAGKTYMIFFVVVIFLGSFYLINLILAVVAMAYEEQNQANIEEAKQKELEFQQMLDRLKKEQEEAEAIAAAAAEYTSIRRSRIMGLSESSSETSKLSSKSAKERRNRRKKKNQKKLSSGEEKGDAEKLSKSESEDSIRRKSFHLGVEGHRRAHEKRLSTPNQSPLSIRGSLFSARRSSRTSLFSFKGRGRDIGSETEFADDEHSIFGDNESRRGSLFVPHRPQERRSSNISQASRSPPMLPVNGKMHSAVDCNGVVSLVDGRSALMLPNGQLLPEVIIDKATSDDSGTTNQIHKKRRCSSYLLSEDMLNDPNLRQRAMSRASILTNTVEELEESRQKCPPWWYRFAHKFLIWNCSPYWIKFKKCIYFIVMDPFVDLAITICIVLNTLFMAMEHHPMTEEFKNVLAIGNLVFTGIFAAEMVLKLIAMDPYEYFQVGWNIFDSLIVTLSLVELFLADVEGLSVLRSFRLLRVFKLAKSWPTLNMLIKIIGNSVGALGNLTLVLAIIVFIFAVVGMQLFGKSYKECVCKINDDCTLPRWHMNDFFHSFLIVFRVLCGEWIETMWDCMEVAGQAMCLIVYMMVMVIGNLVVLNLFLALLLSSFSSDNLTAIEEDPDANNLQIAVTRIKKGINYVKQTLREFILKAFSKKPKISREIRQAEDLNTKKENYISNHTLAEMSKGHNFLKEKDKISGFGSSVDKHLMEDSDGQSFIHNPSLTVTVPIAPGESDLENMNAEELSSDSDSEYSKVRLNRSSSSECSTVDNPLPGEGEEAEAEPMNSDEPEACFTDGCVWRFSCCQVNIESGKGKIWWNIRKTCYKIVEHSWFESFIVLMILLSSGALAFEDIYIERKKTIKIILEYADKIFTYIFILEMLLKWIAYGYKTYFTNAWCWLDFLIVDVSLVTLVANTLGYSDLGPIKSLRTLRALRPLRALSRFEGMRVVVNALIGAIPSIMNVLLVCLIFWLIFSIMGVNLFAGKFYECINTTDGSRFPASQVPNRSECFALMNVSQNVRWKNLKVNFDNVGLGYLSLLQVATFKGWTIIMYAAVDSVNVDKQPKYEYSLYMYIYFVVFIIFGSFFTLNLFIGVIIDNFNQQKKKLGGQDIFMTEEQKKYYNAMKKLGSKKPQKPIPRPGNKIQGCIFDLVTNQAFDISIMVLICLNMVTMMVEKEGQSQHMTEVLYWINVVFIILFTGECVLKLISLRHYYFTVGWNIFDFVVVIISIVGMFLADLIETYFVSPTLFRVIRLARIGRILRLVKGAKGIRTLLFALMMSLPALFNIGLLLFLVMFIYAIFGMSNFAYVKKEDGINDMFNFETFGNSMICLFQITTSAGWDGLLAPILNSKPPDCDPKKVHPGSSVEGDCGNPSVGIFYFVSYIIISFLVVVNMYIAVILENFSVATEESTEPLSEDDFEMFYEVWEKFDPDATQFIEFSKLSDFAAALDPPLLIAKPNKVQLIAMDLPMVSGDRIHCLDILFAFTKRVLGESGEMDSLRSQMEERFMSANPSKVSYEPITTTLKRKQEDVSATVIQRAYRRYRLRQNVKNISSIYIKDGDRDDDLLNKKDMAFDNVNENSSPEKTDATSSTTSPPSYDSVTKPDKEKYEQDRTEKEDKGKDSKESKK
# [4] = Half life in Sprague-Dawley rat at 1 mg/kg, iv or 3 mg/kg, po; format: ADME, organism-based; conditions: in vivo
# [5] = biological target: T1, Sodium channel protein type 9 subunit alpha; assay: Inhibition of human Nav1.7 channel expressed in HEK293 cells at 1 uM by FRET assay; format: cell-based
# Target sequence in this assay (Q15858 whole entry, looked up): as the sequence (Q15858 whole entry) above
# [6] = biological target: Voltage-gated inwardly rectifying potassium channel KCNH2 (Homo sapiens, UniProt Q12809); assay: as §1; format: cell-based; conditions: hek293, 10 µM, 10 µM
# Rattus norvegicus [7] = assay: Analgesic activity in SNL rat neuropathic pain model assessed as reversal of allodynia at 10 mg/kg, po after 3 hrs; format: functional
# Rattus norvegicus [8] = assay: Analgesic activity in SNL rat neuropathic pain model assessed as reversal of allodynia at 10 mg/kg, po after 4 hrs; format: functional
# Rattus norvegicus [9] = assay: Analgesic activity in SNL rat neuropathic pain model assessed as reversal of allodynia at 10 mg/kg, po after 2 hrs; format: functional
# hERG (KCNH2), sequence (Q12809 whole entry): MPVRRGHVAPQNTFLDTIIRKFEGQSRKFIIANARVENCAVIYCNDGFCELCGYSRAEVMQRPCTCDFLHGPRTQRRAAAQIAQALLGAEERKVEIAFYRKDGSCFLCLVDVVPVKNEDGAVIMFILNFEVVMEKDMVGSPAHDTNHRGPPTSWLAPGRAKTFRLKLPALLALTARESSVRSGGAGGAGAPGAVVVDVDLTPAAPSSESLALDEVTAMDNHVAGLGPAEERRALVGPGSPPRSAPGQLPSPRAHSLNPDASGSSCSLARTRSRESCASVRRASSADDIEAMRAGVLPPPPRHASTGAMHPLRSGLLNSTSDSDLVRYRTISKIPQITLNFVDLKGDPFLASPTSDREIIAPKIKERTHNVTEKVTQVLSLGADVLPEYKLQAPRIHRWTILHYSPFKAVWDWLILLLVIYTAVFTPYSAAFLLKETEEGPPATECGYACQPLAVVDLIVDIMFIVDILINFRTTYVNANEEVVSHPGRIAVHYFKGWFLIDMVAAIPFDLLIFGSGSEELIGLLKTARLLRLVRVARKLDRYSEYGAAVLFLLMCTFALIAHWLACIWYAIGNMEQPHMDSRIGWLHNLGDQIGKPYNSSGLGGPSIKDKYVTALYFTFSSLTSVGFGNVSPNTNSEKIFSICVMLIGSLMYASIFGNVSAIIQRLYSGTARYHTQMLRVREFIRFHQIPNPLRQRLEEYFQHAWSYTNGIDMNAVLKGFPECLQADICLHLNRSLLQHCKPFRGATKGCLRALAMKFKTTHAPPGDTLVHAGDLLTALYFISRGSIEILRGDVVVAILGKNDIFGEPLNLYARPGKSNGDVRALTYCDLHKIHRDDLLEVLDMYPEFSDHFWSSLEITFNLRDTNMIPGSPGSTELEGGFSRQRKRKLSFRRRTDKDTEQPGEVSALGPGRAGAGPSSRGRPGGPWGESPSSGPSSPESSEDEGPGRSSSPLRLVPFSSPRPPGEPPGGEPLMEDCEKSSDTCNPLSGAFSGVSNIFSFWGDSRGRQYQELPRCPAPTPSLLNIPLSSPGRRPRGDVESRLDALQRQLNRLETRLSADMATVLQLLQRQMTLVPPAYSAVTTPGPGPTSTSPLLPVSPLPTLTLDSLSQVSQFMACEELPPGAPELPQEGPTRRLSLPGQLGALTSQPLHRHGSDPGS
# Voltage-gated inwardly rectifying potassium channel KCNH2, sequence (Q12809 whole entry): as above
SMILES,IC50 [3] [nM],inhibition at 10 µM (hERG (KCNH2)) [%],also measured
O=C(NC1(c2ccccc2)CCC1)[C@@H]1CCC[C@H]1c1cc(-c2cccc(OC(F)(F)F)c2)on1,370,55,bioavailability [1]: 46%; clearance [2]: 89 mL/min/kg; half-life [4]: 2.6 h
CC1(c2ccccc2)CC([C@@H]2CCC[C@H]2C(=O)NC2(c3ccccc3)CCC2)=NO1 (some centres undefined),,,inhibition [5]: 8%
COc1cccc(-c2cc([C@@H]3CCC[C@H]3C(=O)NC3(c4ccccc4)CCC3)no2)n1,190,54,
O=C(NC1(c2ccccc2)CCC1)[C@@H]1CCC[C@H]1c1cc(-c2ccccc2C(F)(F)F)on1,740,91,
CC(C)(NC(=O)[C@@H]1CCC[C@H]1c1cc(-c2ccccc2)on1)c1ccccc1,430,45,
COc1ccc(-c2cc([C@@H]3CCC[C@H]3C(=O)NC3(c4ccccc4)CCC3)no2)cc1,180,44,
O=C(NC1(c2ccccc2)CCCCC1)[C@@H]1CCC[C@H]1c1cc(-c2ccccc2)on1,580,,
O=C(NC1(c2ccccc2)CCC1)[C@@H]1CCC[C@H]1c1cc(-c2cccc(C(F)(F)F)n2)on1,220,22,bioavailability [1]: 36%; clearance [2]: 135 mL/min/kg; half-life [4]: 1.51 h
O=C(NC1(c2ccccc2)CCC1)[C@@H]1CCC[C@H]1c1cc(-c2c(O)cccc2C(F)(F)F)on1,,,inhibition [5]: 1%
O=C(NC1(c2ccccc2)CC(O)C1)[C@@H]1CCC[C@H]1c1cc(-c2ccccc2)on1 (some centres undefined),> 5000,,
O=C(NC1(c2ccccc2)CCC1)[C@@H]1CCC[C@H]1c1cc(-c2cccc(C(F)(F)F)c2O)on1 (stereo in doubt; 30),340,45,
COc1cccc(-c2cc([C@@H]3CCC[C@H]3C(=O)NC3(c4ccccc4)CCC3)no2)c1,20,62,
O=C(NC1(c2ccccc2)CCC1)[C@@H]1CCC[C@H]1c1cc(-c2cccc(C(F)(F)F)c2O)on1 (stereo in doubt; 30a),430,,
O=C(NC1(c2ccccc2)CC(F)(F)C1)[C@@H]1CCC[C@H]1c1cc(-c2ccccc2)on1,,27,inhibition [5]: 41%
O=C(NC1(c2ccccc2)CCC1)[C@@H]1CCC[C@H]1c1cc(-c2ccc(C(F)(F)F)cc2O)on1,300,72,
O=C(NC1(c2ccccc2)CCC1)[C@@H]1CCC[C@H]1c1cc(-c2cc(C(F)(F)F)ccc2O)on1,,,inhibition [5]: 1%
O=C(NC1(c2ccccc2)CCC1)[C@@H]1CCC[C@H]1c1cc(-c2ccc(O)c(C(F)(F)F)c2)on1,,,inhibition [5]: 0%
O=C(NC1(c2ccccc2)CCC1)[C@@H]1CCC[C@H]1c1cc(-c2ccc(O)cc2)on1,130,15,
O=C(NC1(c2ccccc2F)CCC1)[C@@H]1CCC[C@H]1c1cc(-c2ccccc2)on1,450,40,
O=C(NC1(c2ccc(F)cc2)CCC1)[C@@H]1CCC[C@H]1c1cc(-c2ccccc2)on1,84,81,
O=C(NC1(c2cccc(C(F)(F)F)c2)CCC1)[C@@H]1CCC[C@H]1c1cc(-c2ccccc2)on1,590,89,
O=C(NCc1ccccc1)[C@@H]1CCC[C@H]1c1cc(-c2ccccc2)on1,,35,inhibition [5]: 37%
O=C(NC1(c2ccccc2)CCC1)[C@@H]1CCC[C@H]1c1cc(-c2ccccc2O)on1,,54,inhibition [5]: 44%
O=C(NC1(c2ccccc2)CCC1)[C@@H]1CCC[C@H]1c1cc(-c2cccc(=O)[nH]2)on1,,,inhibition [5]: 0%
O=C(NC1(c2cccc(F)c2)CCC1)[C@@H]1CCC[C@H]1c1cc(-c2ccccc2)on1,110,64,
COc1ccccc1-c1cc([C@@H]2CCC[C@H]2C(=O)NC2(c3ccccc3)CCC2)no1,390,54,
COC1CC(NC(=O)[C@@H]2CCC[C@H]2c2cc(-c3ccccc3)on2)(c2ccccc2)C1 (some centres undefined),380,51,
O=C(NC1(c2ccccc2)CC(F)C1)[C@@H]1CCC[C@H]1c1cc(-c2ccccc2)on1 (stereo in doubt; 18),160,,inhibition (INH) [6]: 59%
CN(Cc1ccc(-c2ccccc2S(N)(=O)=O)cc1)C(=O)[C@@H]1CCC[C@H]1C(=O)NCc1ccc(OC(F)(F)F)cc1,,,Activity (Rattus norvegicus [7]): 35%; Activity (Rattus norvegicus [8]): 28%; Activity (Rattus norvegicus [9]): 30%

# Now from value to compound, other results behind:
IC50 [3] [nM],SMILES,inhibition at 10 µM (hERG (KCNH2)) [%],also measured
440,O=C(NC1(c2ccccc2)CC1)[C@@H]1CCC[C@H]1c1cc(-c2ccccc2)on1,47,
1700,CC(NC(=O)[C@@H]1CCC[C@H]1c1cc(-c2ccccc2)on1)c1ccccc1 (some centres undefined),47,
180,O=C(NC1(c2ccccc2)CCC1)[C@@H]1CCC[C@H]1c1cc(-c2ccccc2Cl)on1,76,
120,O=C(NC1(c2ccccc2)CCC1)[C@@H]1CCC[C@H]1c1cc(-c2ccccc2)on1,37,
220,O=C(NC1(c2ccccc2)CCCC1)[C@@H]1CCC[C@H]1c1cc(-c2ccccc2)on1,85,
260,O=C(NC1(c2ccccc2)CCC1)[C@@H]1CCC[C@H]1c1cc(-c2cccc(OC(F)(F)F)c2O)on1,47,
> 10000,O=C(NC1(c2ccccc2)CCC1)[C@@H]1CCC[C@H]1c1cc(-c2cccc(C(F)(F)F)c2O)on1 (stereo in doubt; 30b),,
210,O=C(NC1(c2ccccc2)CCC1)[C@@H]1CCC[C@H]1c1cc(-c2cccc(O)c2)on1,64,
180,O=C(NC1(c2ccccc2)CC(F)C1)[C@@H]1CCC[C@H]1c1cc(-c2ccccc2)on1 (stereo in doubt; 17),46,

# Source: ChEMBL document CHEMBL1155991, “Discovery of isoxazole voltage gated sodium channel blockers for treatment of chronic pain” (Bioorg Med Chem Lett, 2009)
